Test results published in ChEMBL document CHEMBL4433195, “Biphenyloxy-alkyl-piperidine and azepane derivatives as histamine H3 receptor ligands” (Bioorg Med Chem, 2017).
Blank lines part the entries; values can stand above or below the compound they belong to.

Experiments:
Histamine H3 receptor [1] = target: T1, Histamine H3 receptor (Homo sapiens, UniProt Q9Y5N1); assay: Displacement of [3H]-N-alpha-methylhistamine from human recombinant full length H3R expressed in HEK293 cell membranes incubated for 90 mins by liquid scintillation counting method
[2] = Mutagenicity in Salmonella typhimurium TA98 assessed as fold increase in number of positive wells over the solvent control baseline upto 10 uM incuabted for 90 mins and measured after 48 hrs by Ames test; type: toxicity; conditions: salmonella enterica subsp. enterica serovar typhimurium
HepG2 = assay: Cytotoxicity against human HepG2 cells assessed as cell viability incubated for 72 hrs by cellTiter 96 AQueous non-radioactive cell proliferation assay; type: cell-based; conditions: HepG2, 72 h
[3] = Mutagenicity in Salmonella typhimurium TA100 assessed as fold increase in number of positive wells over the solvent control baseline upto 10 uM incuabted for 90 mins and measured after 48 hrs by Ames test; type: toxicity; conditions: salmonella enterica subsp. enterica serovar typhimurium
Cytochrome P450 3A4 [4] = target: T2, Cytochrome P450 3A4 (Homo sapiens, UniProt P08684); assay: Inhibition of human recombinant CYP3A4 using luciferin as substrate at 0.025 to 25 uM preincubated for 10 mins followed by substrate addition and measured after 50 mins in presence of NADPH by CYP450-Glo assay; type: ADME; conditions: recombinant enzyme
Homo sapiens = species: Homo sapiens; assay: Selectivity ratio of Ki for human H4R to Ki for human H3R
Histamine H3 receptor [5] = target: T1, Histamine H3 receptor; assay: Antagonist activity at human H3R expressed in HEK293 cells assessed as reduction in R)(-)-alpha methylhistamine-induced inhibition of forskolin-induced cAMP accumulation by TR-FRET based LANCE ultra cAMP immunoassay; type: functional, cell-based
[6] = target: T3, Voltage-gated inwardly rectifying potassium channel KCNH2 (Homo sapiens, UniProt Q12809)
[7] = Metabolic stability in human recombinant liver microsomes assessed as metabolite M2 formation at 50 uM preincubated for 5 mins followed by NADPH addition and measured after 120 mins by UPLC-MS analysis; type: ADME, Microsome; conditions: 2 h
[8] = target: Muscarinic acetylcholine receptor M3 (Cavia porcellus) (UniProt Q8VH26); assay: Antagonist activity at muscarinic M3 receptor in guinea-pig ileum assessed as inhibition of carbachol-induced contractions incubated for 15 mins; type: tissue-based
Rattus norvegicus [9] = species: Rattus norvegicus; assay: Reversal of RAMH-induced dipsogenia in Wistar rat (Krf:(WI) WU) assessed as inhibition of RAMH-induced drinking response pretreated for 30 mins followed by RAMH stimulation for 20 mins and measured for 30 mins; type: functional
[10] = Metabolic stability in human recombinant liver microsomes assessed as metabolite M3 formation at 50 uM preincubated for 5 mins followed by NADPH addition and measured after 120 mins by UPLC-MS analysis; type: ADME, Microsome; conditions: 2 h
[11] = Metabolic stability in human recombinant liver microsomes assessed as retention time at 50 uM preincubated for 5 mins followed by NADPH addition and measured after 120 mins by UPLC-MS analysis; type: ADME, Microsome; conditions: 2 h
Cytochrome P450 2D6 = Cytochrome P450 2D6 (Homo sapiens, UniProt P10635); assay: Inhibition of human recombinant CYP2D6 at >2.5 uM using luciferin as substrate preincubated for 10 mins followed by substrate addition and measured after 50 mins in presence of NADPH by CYP450-Glo assay; type: ADME; conditions: recombinant enzyme
[12] = target: Histamine H1 receptor (Cavia porcellus) (UniProt P31389); assay: (§1) Antagonist activity at histamine H1 receptor in guinea-pig ileum assessed as inhibition of histamine-induced contractions incubated for 15 mins; type: tissue-based
Histamine H1 receptor [13] = target: Histamine H1 receptor (Cavia porcellus, UniProt P31389); assay: as §1; type: tissue-based; conditions: read-out: pA2 (converted)
[14] = Metabolic stability in human recombinant liver microsomes assessed as metabolite M formation at 50 uM preincubated for 5 mins followed by NADPH addition and measured after 120 mins by UPLC-MS analysis; type: ADME, Microsome; conditions: 2 h
Cytochrome P450 3A4 [15] = target: T2, Cytochrome P450 3A4; assay: Activation of human recombinant CYP3A4 using luciferin as substrate at 12.5 to 25 uM preincubated for 10 mins followed by substrate addition and measured after 50 mins in presence of NADPH by CYP450-Glo assay; type: ADME; conditions: recombinant enzyme
Histamine H4 receptor [16] = target: T4, Histamine H4 receptor (Homo sapiens, UniProt Q9H3N8); assay: Displacement of [3H]histamine from human recombinant H4R expressed in CHO cells incubated for 60 mins by microbeta scintillation counter method; type: cell-based
[17] = Metabolic stability in human recombinant liver microsomes assessed as metabolite M1 formation at 50 uM preincubated for 5 mins followed by NADPH addition and measured after 120 mins by UPLC-MS analysis; type: ADME, Microsome; conditions: 2 h
[18] = Ratio of test compound IC50 to doxorubicin IC50 for cytotoxicity against human HepG2 cells assessed as cell viability incubated for 72 hrs by cellTiter 96 AQueous non-radioactive cell proliferation assay; type: cell-based; conditions: read-out: Ratio IC50
[19] = target: T3, Voltage-gated inwardly rectifying potassium channel KCNH2; assay: Displacement of [3H]Dofetilide from human ERG human expressed in HEK293 cells incubated for 45 mins; type: cell-based
Histamine H4 receptor [20] = target: T4, Histamine H4 receptor; assay: Antagonist activity at human H4R expressed in HEK293 cells incubated for 20 mins by [35S]GTPgammaS binding assay; type: functional, cell-based
Histamine H3 receptor [21] = target: T1, Histamine H3 receptor; assay: Binding affinity to human H3R
Rattus norvegicus [22] = assay: Reversal of RAMH-induced dipsogenia in Wistar rat (Krf:(WI) WU) assessed as inhibition of RAMH-induced drinking response at 1.25 mg/kg, ip pretreated for 30 mins followed by RAMH stimulation for 20 mins and measured for 30 mins; type: functional
[23] = Metabolic stability in rat liver microsomes assessed as metabolite M1 formation at 50 uM preincubated for 5 mins followed by NADPH addition and measured after 30 mins UPLC-MS analysis; type: ADME, Microsome; conditions: 0.5 h
[24] = Metabolic stability in rat liver microsomes assessed as metabolite M3 formation at 50 uM preincubated for 5 mins followed by NADPH addition and measured after 30 mins UPLC-MS analysis; type: ADME, Microsome; conditions: 0.5 h
[25] = Metabolic stability in rat liver microsomes assessed as retention time at 50 uM preincubated for 5 mins followed by NADPH addition and measured after 30 mins UPLC-MS analysis; type: ADME, Microsome; conditions: 0.5 h
[26] = Intrinsic clearance in rat liver microsomes measured up to 30 mins; type: ADME, Microsome; conditions: read-out: CLH
Histamine H1 receptor [27] = target: Histamine H1 receptor (Homo sapiens, UniProt P35367); assay: Displacement of [3H]pyrilamine from human H1 receptor expressed in CHOK1 cells incubated for 60 mins by microbeta scintillation counter method; type: cell-based
[28] = Half life in rat liver microsomes measured up to 30 mins; type: ADME, Microsome
[29] = Metabolic stability in rat liver microsomes assessed as metabolite M2 formation at 50 uM preincubated for 5 mins followed by NADPH addition and measured after 30 mins UPLC-MS analysis; type: ADME, Microsome; conditions: 0.5 h
Histamine H3 receptor [30] = target: T1, Histamine H3 receptor; assay: Binding affinity to human H3R expressed in rat C6 cells; type: cell-based
Histamine H4 receptor [31] = target: T4, Histamine H4 receptor; assay: Binding affinity to human H4R

T2 sequence (P08684 whole entry): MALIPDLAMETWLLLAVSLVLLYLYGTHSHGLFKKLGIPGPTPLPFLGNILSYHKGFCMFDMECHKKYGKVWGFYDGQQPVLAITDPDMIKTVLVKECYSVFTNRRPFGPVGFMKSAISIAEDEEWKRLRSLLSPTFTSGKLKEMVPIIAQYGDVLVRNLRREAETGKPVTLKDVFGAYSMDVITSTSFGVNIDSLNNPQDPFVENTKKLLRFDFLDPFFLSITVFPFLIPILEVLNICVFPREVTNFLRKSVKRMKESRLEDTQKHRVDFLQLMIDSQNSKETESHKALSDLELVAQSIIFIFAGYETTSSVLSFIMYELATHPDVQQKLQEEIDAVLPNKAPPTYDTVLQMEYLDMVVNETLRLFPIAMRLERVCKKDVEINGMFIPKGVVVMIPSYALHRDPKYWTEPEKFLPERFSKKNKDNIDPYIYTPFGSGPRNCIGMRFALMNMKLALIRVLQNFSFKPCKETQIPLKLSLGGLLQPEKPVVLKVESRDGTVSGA
Sequence of Muscarinic acetylcholine receptor M3 (Cavia porcellus) (Q8VH26 1-587): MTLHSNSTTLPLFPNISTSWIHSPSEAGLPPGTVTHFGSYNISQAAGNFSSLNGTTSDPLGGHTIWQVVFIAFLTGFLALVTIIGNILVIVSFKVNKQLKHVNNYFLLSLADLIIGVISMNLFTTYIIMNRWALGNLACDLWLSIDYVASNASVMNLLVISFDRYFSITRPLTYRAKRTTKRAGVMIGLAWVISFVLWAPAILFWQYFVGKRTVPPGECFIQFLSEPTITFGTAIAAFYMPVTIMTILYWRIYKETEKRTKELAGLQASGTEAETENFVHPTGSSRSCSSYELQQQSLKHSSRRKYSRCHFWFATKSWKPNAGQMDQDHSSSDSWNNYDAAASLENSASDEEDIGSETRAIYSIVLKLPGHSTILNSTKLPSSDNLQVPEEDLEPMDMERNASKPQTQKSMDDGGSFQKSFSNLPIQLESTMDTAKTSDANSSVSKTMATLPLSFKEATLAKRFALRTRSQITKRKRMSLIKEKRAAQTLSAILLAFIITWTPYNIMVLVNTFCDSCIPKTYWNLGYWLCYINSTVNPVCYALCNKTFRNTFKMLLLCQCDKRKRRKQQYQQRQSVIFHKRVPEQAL
T1 sequence (Q9Y5N1 whole entry): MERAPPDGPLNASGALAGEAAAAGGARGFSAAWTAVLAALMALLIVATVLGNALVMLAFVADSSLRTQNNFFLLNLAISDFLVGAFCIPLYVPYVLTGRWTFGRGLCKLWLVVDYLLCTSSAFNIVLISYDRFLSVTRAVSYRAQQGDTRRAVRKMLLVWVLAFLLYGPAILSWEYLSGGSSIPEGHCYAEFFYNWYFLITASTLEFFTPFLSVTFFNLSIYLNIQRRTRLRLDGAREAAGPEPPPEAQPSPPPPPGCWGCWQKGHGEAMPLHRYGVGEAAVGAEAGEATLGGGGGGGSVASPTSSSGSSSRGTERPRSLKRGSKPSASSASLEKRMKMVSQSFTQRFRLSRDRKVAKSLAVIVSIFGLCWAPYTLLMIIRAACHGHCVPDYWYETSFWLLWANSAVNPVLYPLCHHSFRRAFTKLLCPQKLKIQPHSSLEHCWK
T3 sequence (Q12809 whole entry): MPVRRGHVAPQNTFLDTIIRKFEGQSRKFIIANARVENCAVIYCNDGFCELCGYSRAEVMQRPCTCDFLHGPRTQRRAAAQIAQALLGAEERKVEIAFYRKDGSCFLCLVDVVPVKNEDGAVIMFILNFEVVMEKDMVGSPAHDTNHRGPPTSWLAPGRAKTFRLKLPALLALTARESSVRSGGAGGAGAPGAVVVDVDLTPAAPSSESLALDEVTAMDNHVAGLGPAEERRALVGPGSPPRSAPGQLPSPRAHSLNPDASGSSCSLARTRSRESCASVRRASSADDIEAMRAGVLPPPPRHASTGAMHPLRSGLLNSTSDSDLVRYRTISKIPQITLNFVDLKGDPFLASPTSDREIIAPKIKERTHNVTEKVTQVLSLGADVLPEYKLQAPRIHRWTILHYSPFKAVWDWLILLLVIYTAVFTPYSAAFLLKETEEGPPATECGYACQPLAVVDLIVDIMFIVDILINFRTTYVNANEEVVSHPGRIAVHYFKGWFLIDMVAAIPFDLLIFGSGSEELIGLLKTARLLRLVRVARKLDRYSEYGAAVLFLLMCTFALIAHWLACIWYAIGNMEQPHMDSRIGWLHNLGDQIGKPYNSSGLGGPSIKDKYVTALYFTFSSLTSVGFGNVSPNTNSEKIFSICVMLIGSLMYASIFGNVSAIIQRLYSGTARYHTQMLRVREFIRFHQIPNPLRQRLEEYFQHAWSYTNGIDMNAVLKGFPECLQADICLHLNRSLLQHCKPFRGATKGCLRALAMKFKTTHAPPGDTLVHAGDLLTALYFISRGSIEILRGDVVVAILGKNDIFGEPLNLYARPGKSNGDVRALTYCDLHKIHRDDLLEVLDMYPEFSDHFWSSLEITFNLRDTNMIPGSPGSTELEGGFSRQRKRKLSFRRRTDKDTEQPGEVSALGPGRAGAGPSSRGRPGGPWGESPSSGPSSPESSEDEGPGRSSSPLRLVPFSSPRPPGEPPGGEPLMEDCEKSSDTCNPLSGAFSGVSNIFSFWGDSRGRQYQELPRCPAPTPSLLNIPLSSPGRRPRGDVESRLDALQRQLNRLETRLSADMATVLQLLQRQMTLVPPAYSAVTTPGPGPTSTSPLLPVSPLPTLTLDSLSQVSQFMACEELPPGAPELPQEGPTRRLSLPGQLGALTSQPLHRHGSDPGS
Sequence of Histamine H1 receptor (Cavia porcellus, UniProt P31389) (P31389 whole entry): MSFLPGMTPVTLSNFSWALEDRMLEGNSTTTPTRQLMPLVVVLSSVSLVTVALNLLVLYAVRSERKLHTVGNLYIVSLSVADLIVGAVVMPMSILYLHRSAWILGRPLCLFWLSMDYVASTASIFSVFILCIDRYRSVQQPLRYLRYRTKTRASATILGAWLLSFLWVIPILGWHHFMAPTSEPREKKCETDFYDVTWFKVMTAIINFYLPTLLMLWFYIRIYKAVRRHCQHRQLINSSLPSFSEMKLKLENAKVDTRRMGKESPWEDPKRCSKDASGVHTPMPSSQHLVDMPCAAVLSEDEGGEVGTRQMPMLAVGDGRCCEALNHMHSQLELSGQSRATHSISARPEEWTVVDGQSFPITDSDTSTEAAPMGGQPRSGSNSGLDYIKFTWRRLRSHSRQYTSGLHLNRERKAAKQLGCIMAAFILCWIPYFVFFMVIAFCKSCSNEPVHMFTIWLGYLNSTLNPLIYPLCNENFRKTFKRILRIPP
Sequence of Cytochrome P450 2D6 (P10635 whole entry): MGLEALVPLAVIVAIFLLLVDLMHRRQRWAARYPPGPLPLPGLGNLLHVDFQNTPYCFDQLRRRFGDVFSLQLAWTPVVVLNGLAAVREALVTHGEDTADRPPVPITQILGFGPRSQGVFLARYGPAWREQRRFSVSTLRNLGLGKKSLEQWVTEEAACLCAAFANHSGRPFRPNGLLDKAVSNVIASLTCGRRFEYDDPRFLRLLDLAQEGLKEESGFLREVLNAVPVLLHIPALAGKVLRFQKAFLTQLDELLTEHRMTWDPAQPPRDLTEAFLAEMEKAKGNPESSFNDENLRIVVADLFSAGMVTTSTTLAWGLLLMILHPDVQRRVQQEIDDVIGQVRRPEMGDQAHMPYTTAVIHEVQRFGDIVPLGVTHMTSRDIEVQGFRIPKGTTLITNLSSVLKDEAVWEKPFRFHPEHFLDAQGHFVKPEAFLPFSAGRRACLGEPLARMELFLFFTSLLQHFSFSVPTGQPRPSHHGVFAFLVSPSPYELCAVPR
Sequence of Histamine H1 receptor (Cavia porcellus) (P31389 whole entry): as the sequence (P31389 whole entry) above
Sequence of Histamine H1 receptor (Homo sapiens, UniProt P35367) (P35367 whole entry): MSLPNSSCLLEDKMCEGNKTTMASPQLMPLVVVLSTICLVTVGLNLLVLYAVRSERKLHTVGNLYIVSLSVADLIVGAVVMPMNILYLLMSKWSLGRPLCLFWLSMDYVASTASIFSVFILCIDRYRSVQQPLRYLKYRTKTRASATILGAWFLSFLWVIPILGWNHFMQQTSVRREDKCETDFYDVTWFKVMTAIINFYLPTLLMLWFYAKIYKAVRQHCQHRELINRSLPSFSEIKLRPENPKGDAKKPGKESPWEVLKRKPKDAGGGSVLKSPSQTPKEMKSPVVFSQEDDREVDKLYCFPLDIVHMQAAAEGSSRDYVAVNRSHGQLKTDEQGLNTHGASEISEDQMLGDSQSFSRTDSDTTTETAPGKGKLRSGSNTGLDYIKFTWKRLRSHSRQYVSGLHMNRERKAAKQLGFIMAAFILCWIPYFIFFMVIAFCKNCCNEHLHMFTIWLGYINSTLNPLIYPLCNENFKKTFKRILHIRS

SMILES: CC1CCN(CCCCCOc2cccc(-c3ccccc3)c2)CC1
- Ki (Histamine H3 receptor [1]): 0.157 µM

SMILES: CC(C)(C)c1ccc(OCCCN2CCCCC2)cc1
- Ki (Histamine H3 receptor [1]): 0.131 µM

SMILES: CN1C[C@H]2CCN(c3ccc(-c4ccc(-n5ncccc5=O)cc4)cc3)[C@H]2C1
- Ki [19]: 8.83 µM
- Ki (Histamine H4 receptor [20]): > 10 µM

SMILES: C[C@@H]1CCCN1[C@H]1C[C@H](c2ccc(-c3ccc(C#N)cc3)cc2)C1
- Ki (Histamine H3 receptor [21]): 0.00017 µM

SMILES: c1ccc(CN(CC2=NCCN2)c2ccccc2)cc1 [ANTAZOLINE]
- Kb (Histamine H1 receptor [13]): 0.0724 µM

SMILES: Clc1ccc(CCCOCCCN2CCCCC2)cc1 [PITOLISANT]
- IC50 [6]: 1.7 µM
- inhibition in vivo at 1.25 mg/kg (Rattus norvegicus [22]): 87%

SMILES: CC1CCN(CCCCCOc2ccc(-c3ccccc3)cc2)CC1
- Ki (Histamine H3 receptor [1]): 0.089 µM

SMILES: COc1cccc2c1C(=O)c1c(O)c3c(c(O)c1C2=O)C[C@@](O)(C(=O)CO)C[C@@H]3O[C@H]1C[C@H](N)[C@H](O)[C@H](C)O1 [DOXORUBICIN]
- IC50 (HepG2): 0.392 µM

SMILES: CN1[C@@H]2CC[C@H]1C[C@@H](OC(=O)C(CO)c1ccccc1)C2 (stereo partly drawn)
- pKb [8]: 8.99

SMILES: CC1CCN(CCCCCCOc2ccc(-c3ccccc3)cc2)CC1
- Ki (Histamine H3 receptor [1]): 0.266 µM

SMILES: CC1CCN(CCCCCCOc2cccc(-c3ccccc3)c2)CC1
- Ki (Histamine H3 receptor [1]): 0.159 µM

SMILES: C[C@@H]1CC[C@@H](C)N1CCCOc1ccc(-c2ccc(C(=O)N3CCOCC3)cc2)cc1
- Ki (Histamine H3 receptor [30]): 0.00042 µM
- Ki (Histamine H4 receptor [31]): > 10 µM

Now from value to compound, other results behind:

- Ki (Histamine H3 receptor [1]): 0.076 µM
SMILES: c1ccc(-c2cccc(OCCCCCN3CCCCC3)c2)cc1

- inhibition (INH) (Cytochrome P450 3A4 [4]): Not Active
- Ratio Ki (Homo sapiens): 600
- Activity (Histamine H3 receptor [5]): Dose-dependent effect
- IC50 (Histamine H3 receptor [5]): 0.00404 µM
- Drug metabolism [7]: Metabolite_Notdetected
- pKb [8]: 6.35
- Drug metabolism [10]: Metabolite_Notdetected
- Retention_time [11]: 5.83 min
- inhibition (INH) (Cytochrome P450 2D6): Active
- Activity [12]: Dose-dependent effect
- Kb (Histamine H1 receptor [13]): 0.295 µM
- Ki (Histamine H3 receptor [1]): 0.025 µM
- Drug metabolism [14]: Metabolite_Notdetected
- Activity (Cytochrome P450 3A4 [15]): Active
- Ki (Histamine H4 receptor [16]): 19.9 µM
- Drug metabolism [17]: Metabolite_Notdetected
SMILES: O=C(O)C(=O)O.c1ccc(-c2ccc(OCCCCCN3CCCCC3)cc2)cc1
- fold change (FC) [2]: < 2
- IC50 (HepG2): 17.2 µM
- fold change (FC) [3]: < 2
- IC50 [6]: 1.75 µM
- ED50 (Rattus norvegicus [9]): 2.72 mg/kg
- inhibition (Rattus norvegicus [9]): Dose-dependent effect
- selectivity ratio at 72 h [18]: > 30

- Ki (Histamine H3 receptor [1]): 0.122 µM
SMILES: c1ccc(-c2cccc(OCCCCCCN3CCCCC3)c2)cc1

- Ki (Histamine H3 receptor [1]): 0.115 µM
SMILES: c1ccc(-c2cccc(OCCCCCN3CCCCCC3)c2)cc1

- Drug metabolism [23]: Metabolite_Detected
- inhibition (INH) (Cytochrome P450 3A4 [4]): Not Active
- Activity (Histamine H3 receptor [5]): Dose-dependent effect
- IC50 (Histamine H3 receptor [5]): 0.00908 µM
- Drug metabolism [7]: Metabolite_Detected
- pKb [8]: 6.16
- Drug metabolism [24]: Metabolite_Detected
- Drug metabolism [10]: Metabolite_Detected
- Retention_time [11]: 6.08 min
- inhibition (INH) (Cytochrome P450 2D6): Active
- Activity [12]: Dose-dependent effect
- Kb (Histamine H1 receptor [13]): 0.724 µM
- Retention_time [25]: 6 min
- Ki (Histamine H3 receptor [1]): 0.034 µM
- Drug metabolism [14]: Metabolite_Detected
- CLint scaled [26]: 3.17 L/h/kg
- Activity (Cytochrome P450 3A4 [15]): Active
- Ki (Histamine H1 receptor [27]): 1.27 µM
- half-life [28]: 23.6 min
- Drug metabolism [29]: Metabolite_Detected
- Ki (Histamine H4 receptor [16]): 21.8 µM
- Drug metabolism [17]: Metabolite_Detected
SMILES: O=C(O)C(=O)O.c1ccc(-c2ccc(OCCCCCN3CCCCCC3)cc2)cc1
- ED50 (Rattus norvegicus [9]): 1.75 mg/kg
- inhibition (Rattus norvegicus [9]): Dose-dependent effect

- Ki (Histamine H3 receptor [1]): 0.018 µM
SMILES: c1ccc(-c2cccc(OCCCCCCN3CCCCCC3)c2)cc1

- Ki (Histamine H3 receptor [1]): 0.151 µM
SMILES: c1ccc(-c2ccc(OCCCCCCN3CCCCCC3)cc2)cc1

- Ki (Histamine H3 receptor [1]): 0.092 µM
SMILES: c1ccc(-c2ccc(OCCCCCCN3CCCCC3)cc2)cc1
